From EPA's ToxValDB 9.5 come the findings set out here.

For data set [1], the system named is Rattus norvegicus. Conditions: for LEL: uterotrophic, Active; for LOEL / NOEL: Hershberger, duration: 10 days.
Data set [2] has as its system Rattus norvegicus.
The test system of data set [3] is Mus musculus. The note with it: for LD50: acute.
Where [4] appears, read: injection, subcutaneous, Sprague-Dawley, active + Androgenic + androgenic.
The mark [5] stands for this setting: oral, gavage, Wistar, active + Androgenic + androgenic.
The mark [6] stands for this setting: oral, gavage, wistar, active + Androgenic + androgenic.
[7] abbreviates: chronic, duration: 91 days, oral, gavage.
The mark [8] stands for this setting: oral, gavage, Sprague-Dawley, active + Antiandrogenic + anti-androgenic.
Setting [9] is: chronic, duration: 103 weeks, oral, diet, F, Fischer 344.
Where [10] appears, read: chronic, duration: 103 weeks, oral, diet, M, Fischer 344.
The mark [11] stands for this setting: developmental, duration: 10 days, oral, gavage, Crl:CD(SD).
The mark [12] stands for this setting: subchronic, duration: 12 weeks, oral, diet, F, Fischer 344.
The mark [13] stands for this setting: subchronic, duration: 12 weeks, oral, diet, M, Fischer 344.
[14] abbreviates: chronic, duration: 103 weeks, oral, diet, B6C3F1.
The mark [15] stands for this setting: subchronic, duration: 12 weeks, oral, diet, M, B6C3F1.

Values after ≈ are worked out from the molar mass of the structure shown. Values joined by “and” are separate entries in the source; they are usually repeats but may differ in a detail not shown here. Equal entries are not always repeated. Bounds are passed on as bounds.

The compound `O=[N+]([O-])c1ccc(O)cc1` [4-Nitrophenol] had an LEL in data set [1] (duration: 7 days, injection, subcutaneous) of 10 mg/kg-day.

`C[C@]12C=CC3=C4CCC(=O)C=C4CC[C@H]3[C@@H]1CC[C@@H]2O` [17beta-Trenbolone]: the LOEL is 200 mg/kg-day in data set [1] (setting [4]); 40 mg/kg-day in data set [1] (oral, gavage, Sprague-Dawley, androgenic); 40 mg/kg-day in data set [1] (setting [5]); 40 mg/kg-day in data set [1] (setting [6]). Further, the NOEL in data set [1] (setting [4]) is 100 mg/kg-day; in data set [1] (setting [5]), 8 mg/kg-day; in data set [1] (setting [6]), 8 mg/kg-day.

Compound `O=c1cc(-c2ccc(O)cc2)oc2cc(O)cc(O)c12` [Apigenin] had an LEL in data set [1] (duration: 7 days, oral) of 5 mg/kg-day.

With `O=C(c1ccccc1)c1ccccc1` [Benzophenone], the LEL in data set [1] (duration: 3 days, injection, intraperitoneal) is 300 mg/kg-day; in data set [1] (duration: 3 days, injection, subcutaneous) it was 500 mg/kg-day; in data set [1] (duration: 3 days, oral) it was 400 mg/kg-day.

For the compound `CCCCC(CC)COC(=O)CCCCCCCCC(=O)OCC(CC)CCCC` (stereo unspecified) [Bis(2-ethylhexyl) decanedioate], the LD50 (as a rule, the dose at which mortality reaches 50%) was 17000 mg/kg in data set [2] (acute, oral, gavage) and 9500 mg/kg in data set [3] (oral, gavage).

As to `O=C([O-])c1[nH]n(-c2ccc(S(=O)(=O)[O-])cc2)c(=O)c1N=Nc1ccc(S(=O)(=O)[O-])cc1.[Na+].[Na+].[Na+]` [C.I. Acid Yellow 23], the “NOAEL (% diet)” value stood at 5 in data set [2] (chronic, duration: 113 weeks, oral, diet); 5 in data set [2] (reproduction developmental, duration: 114 weeks, oral, diet); 5 in data set [3] (subchronic, duration: 3 months, oral, diet, CD1). The NOAEL (as a rule, the highest tested level that showed no adverse finding) in data set [2] (chronic, duration: 113 weeks, oral, diet, F) is 3350 mg/kg-day; in data set [2] (chronic, duration: 113 weeks, oral, diet, M) it was 2640 mg/kg-day; in data set [2] (developmental, duration: 19 days, oral, gavage, Osborne-Mendel), > 1000 mg/kg-day; in data set [2] (reproduction developmental, duration: 114 weeks, oral, diet, M), 2640 mg/kg-day and 3350 mg/kg-day; in data set [2] (reproduction developmental, duration: 19 days, oral, gavage, F, Osborne-Mendel), > 1000 mg/kg-day; in data set [3] (subchronic, duration: 3 months, oral, diet, F, CD1), 9750 mg/kg-day. In data set [3] (subchronic, duration: 3 months, oral, diet, M, CD1), this compound yielded an NOAEL of 8100 mg/kg-day.

On to `Cc1cc(N=Nc2c(O)ccc3ccccc23)c(S(=O)(=O)[O-])cc1Cl.Cc1cc(N=Nc2c(O)ccc3ccccc23)c(S(=O)(=O)[O-])cc1Cl.[Ba+2]` [C.I. Pigment Red 53], for which the NOAEL was 25 mg/kg-day in data set [2] (setting [7]); < 10000 ppm in data set [2] (reproduction developmental, duration: 30 months, oral, gavage, F); > 10000 ppm in data set [2] (reproduction developmental, duration: 30 months, oral, gavage, generation: F0); > 10000 ppm in data set [2] (reproduction developmental, duration: 30 months, oral, gavage, generation: F1); 90 mg/kg-day in data set [3] (setting [7]).

As for `CC(C)CCCCCCCOC(=O)c1ccccc1C(=O)OCCCCCCCC(C)C` [Diisodecyl phthalate], in data set [1] (setting [8]), the LOEL was determined as 500 mg/kg-day and the NOEL worked out at 100 mg/kg-day.

For `O=S(=O)([O-])c1ccc(N=Nc2c(O)ccc3cc(S(=O)(=O)[O-])ccc23)cc1.[Na+].[Na+]` [FD&C Yellow 6], the LD50 in data set [2] (acute, injection, intraperitoneal, Carworth) was 3800 mg/kg; in data set [2] (acute, oral, Carworth), > 10000 mg/kg; in data set [2] (acute, oral, gavage, Wistar), > 2000 mg/kg; in data set [3] (injection, intraperitoneal, ICI Alderley Park Strain), ≥ 4600 mg/kg and ≤ 5500 mg/kg; in data set [3] (oral, ICI Alderley Park Strain), > 6000 mg/kg. For the same compound, the LOAEL (in general, the lowest dose or exposure tested at which an adverse effect was seen) is > 1950 mg/kg-day in data set [2] (setting [9]); 1950 mg/kg-day in data set [2] (setting [10]); 300 mg/kg-day in data set [2] (setting [11]); 1200 mg/kg-day in data set [2] (setting [12]); 2400 mg/kg-day in data set [2] (setting [13]); 4620 mg/kg-day in data set [3] (setting [14]). Besides, in data set [3] (setting [15]), the LOAEL turned out to be 19700 mg/kg-day. For the same compound, the NOAEL in data set [2] (setting [9]) was 1950 mg/kg-day; in data set [2] (setting [10]), 975 mg/kg-day; in data set [2] (setting [11]) it was 100 mg/kg-day; in data set [2] (reproduction developmental, duration: 126 days, oral, diet, Charles River Albino CD (R), generation: F0), 1500 mg/kg-day; in data set [2] (reproduction developmental, duration: 126 days, oral, diet, Charles River Albino CD (R), generation: F1) it was 1500 mg/kg-day; in data set [2] (reproduction developmental, oral, diet, Crl:CD(SD)) it was 500 mg/kg-day. The NOAEL is 576 mg/kg-day in data set [2] (setting [12]), 1200 mg/kg-day in data set [2] (setting [13]), 2310 mg/kg-day in data set [3] (setting [14]) and 9850 mg/kg-day in data set [3] (setting [15]).

On to `CCN(CC)c1ccccc1` [N,N-Diethylaniline], for which the LD50 in data set [2] (acute, dermal) amounted to 5000 mg/kg; in data set [2] (acute, oral) it was 720 mg/kg; in data set [2] (acute, oral, gavage, Wistar) it was 606 mg/kg; in data set [3] (injection, Intraperitoneal), 870 mg/kg. For the same compound, in data set [2] (acute, inhalation), the LC50 (commonly the concentration lethal to half of the exposed cells or organisms) was 1.92 µg/mL (≈ 12.9 µM). In data set [2] (short-term, duration: 28 days, oral, gavage, Wistar), this compound came in with an LOAEL of 10 mg/kg-day.

With `CC(=O)CC(=O)N(C)C` [N,N-Dimethylacetoacetamide], the LD50 is ≥ 3200 mg/kg in data set [2] (acute, oral, gavage) and ≥ 3200 mg/kg in data set [3] (oral, gavage).
